Data published in patent publication US20250186321A1, “FORMULATION USING AMINO ACID AND CARBOXYLIC ACID, ORGANIC SALT, AND COMPOSITION COMPRISING SAME AND USE THEREOF” (MIYOSHI OIL & FAT CO., LTD., priority 2021, published 2025).

Experiment: Appearance of formulation (state at 25° C.)
Type: physicochemical
Protocol: Formulations 1 to 427 shown in Tables 1A to 1D were prepared by the above-described method using the components (A) and (B) at the compounding molar ratios shown in the tables, and their states at 25° C. were observed.

[1] = Tables 1C-1 to 1D, compounding molar ratio (Component (A):Component (B)) 1:1

CCC(=O)O.O=C(O)[C@@H]1CCCN1 [Formulation 342]
state at 25° C. [1]: Solid

CCCCCC(=O)O.O=C(O)[C@@H]1CCCN1 [Formulation 343]
state at 25° C. [1]: Salid

CCCC(=O)O.O=C(O)[C@@H]1CCCN1 [Formulation 344]
state at 25° C. [1]: Solid

O=C(O)CCCCC(=O)O.O=C(O)[C@@H]1CCCN1 [Formulation 350]
state at 25° C. [1]: Solid

O=C(O)CCC(=O)O.O=C(O)[C@@H]1CCCN1 [Formulation 351]
state at 25° C. [1]: Solid

N[C@@H](CCC(=O)O)C(=O)O.O=C(O)[C@@H]1CCCN1 [Formulation 352]
state at 25° C. [1]: Solid

O=C(O)/C=C/C(=O)O.O=C(O)[C@@H]1CCCN1 [Formulation 353]
state at 25° C. [1]: Solid

O=C(O)C(O)C(O)C(=O)O.O=C(O)[C@@H]1CCCN1 (stereo not drawn) [Formulation 356]
state at 25° C. [1]: Solid

O=C(O)[C@@H]1CCCN1.O=C(O)c1ccccc1 [Formulation 357]
state at 25° C. [1]: Solid

N[C@@H](Cc1ccccc1)C(=O)O.O=CO [Formulation 360]
state at 25° C. [1]: Solid

CC(=O)O.N[C@@H](Cc1ccccc1)C(=O)O [Formulation 361]
state at 25° C. [1]: Solid

CCC(=O)O.N[C@@H](Cc1ccccc1)C(=O)O [Formulation 362]
state at 25° C. [1]: Solid

CCCCCC(=O)O.N[C@@H](Cc1ccccc1)C(=O)O [Formulation 363]
state at 25° C. [1]: Solid

CCCC(=O)O.N[C@@H](Cc1ccccc1)C(=O)O [Formulation 364]
state at 25° C. [1]: Solid

N[C@@H](Cc1ccccc1)C(=O)O.O=C(O)[C@H](O)[C@@H](O)[C@H](O)[C@H](O)CO [Formulation 365]
state at 25° C. [1]: Solid

CC(O)C(=O)O.N[C@@H](Cc1ccccc1)C(=O)O [Formulation 366]
state at 25° C. [1]: Solid

N[C@@H](Cc1ccccc1)C(=O)O.O=C(O)CCCCC(=O)O [Formulation 367]
state at 25° C. [1]: Solid

N[C@@H](Cc1ccccc1)C(=O)O.O=C(O)CCC(=O)O [Formulation 368]
state at 25° C. [1]: Solid

N[C@@H](CCC(=O)O)C(=O)O.N[C@@H](Cc1ccccc1)C(=O)O [Formulation 369]
state at 25° C. [1]: Solid

N[C@@H](Cc1ccccc1)C(=O)O.O=C(O)/C=C/C(=O)O [Formulation 370]
state at 25° C. [1]: Solid

N[C@@H](Cc1ccccc1)C(=O)O.O=C(O)C[C@H](O)C(=O)O [Formulation 371]
state at 25° C. [1]: Salid

N[C@@H](Cc1ccccc1)C(=O)O.O=C(O)CC(O)(CC(=O)O)C(=O)O [Formulation 372]
state at 25° C. [1]: Solid

N[C@@H](Cc1ccccc1)C(=O)O.O=C(O)C(O)C(O)C(=O)O [Formulation 373]
state at 25° C. [1]: Solid

N[C@@H](Cc1ccccc1)C(=O)O.O=C(O)c1ccccc1 [Formulation 374]
state at 25° C. [1]: Solid

N[C@@H](Cc1ccccc1)C(=O)O.O=C1O[C@H]([C@H](O)CO)C(O)=C1O [Formulation 375]
state at 25° C. [1]: Solid

N[C@@H](Cc1c[nH]c2ccccc12)C(=O)O.O=CO [Formulation 377]
state at 25° C. [1]: Solid

CC(=O)O.N[C@@H](Cc1c[nH]c2ccccc12)C(=O)O [Formulation 378]
state at 25° C. [1]: Solid

CCC(=O)O.N[C@@H](Cc1c[nH]c2ccccc12)C(=O)O [Formulation 379]
state at 25° C. [1]: Solid

CCCCCC(=O)O.N[C@@H](Cc1c[nH]c2ccccc12)C(=O)O [Formulation 380]
state at 25° C. [1]: Solid

CCCC(=O)O.N[C@@H](Cc1c[nH]c2ccccc12)C(=O)O [Formulation 381]
state at 25° C. [1]: Solid

N[C@@H](Cc1c[nH]c2ccccc12)C(=O)O.O=C(O)[C@H](O)[C@@H](O)[C@H](O)[C@H](O)CO [Formulation 382]
state at 25° C. [1]: Solid

CC(O)C(=O)O.N[C@@H](Cc1c[nH]c2ccccc12)C(=O)O [Formulation 383]
state at 25° C. [1]: Solid

N[C@@H](Cc1c[nH]c2ccccc12)C(=O)O.O=C(O)CCCCC(=O)O [Formulation 384]
state at 25° C. [1]: Solid

N[C@@H](Cc1c[nH]c2ccccc12)C(=O)O.O=C(O)CCC(=O)O [Formulation 385]
state at 25° C. [1]: Solid

N[C@@H](CCC(=O)O)C(=O)O.N[C@@H](Cc1c[nH]c2ccccc12)C(=O)O [Formulation 386]
state at 25° C. [1]: Solid

N[C@@H](Cc1c[nH]c2ccccc12)C(=O)O.O=C(O)/C=C/C(=O)O [Formulation 387]
state at 25° C. [1]: Solid

N[C@@H](Cc1c[nH]c2ccccc12)C(=O)O.O=C(O)C[C@H](O)C(=O)O [Formulation 388]
state at 25° C. [1]: Solid

N[C@@H](Cc1c[nH]c2ccccc12)C(=O)O.O=C(O)CC(O)(CC(=O)O)C(=O)O [Formulation 389]
state at 25° C. [1]: Solid

N[C@@H](Cc1c[nH]c2ccccc12)C(=O)O.O=C(O)C(O)C(O)C(=O)O [Formulation 390]
state at 25° C. [1]: Solid

N[C@@H](Cc1c[nH]c2ccccc12)C(=O)O.O=C(O)c1ccccc1 [Formulation 391]
state at 25° C. [1]: Solid

N[C@@H](Cc1c[nH]c2ccccc12)C(=O)O.O=C1O[C@H]([C@@H](O)CO)C(O)=C1O [Formulation 392]
state at 25° C. [1]: Solid

N[C@@H](Cc1c[nH]c2ccccc12)C(=O)O.O=C1O[C@H]([C@H](O)CO)C(O)=C1O [Formulation 393]
state at 25° C. [1]: Solid

N[C@@H](CC(=O)O)C(=O)O.O=CO [Formulation 394]
state at 25° C. [1]: Solid

CC(=O)O.N[C@@H](CC(=O)O)C(=O)O [Formulation 395]
state at 25° C. [1]: Solid

CCC(=O)O.N[C@@H](CC(=O)O)C(=O)O [Formulation 396]
state at 25° C. [1]: Solid

CCCCCC(=O)O.N[C@@H](CC(=O)O)C(=O)O [Formulation 397]
state at 25° C. [1]: Solid

CCCC(=O)O.N[C@@H](CC(=O)O)C(=O)O [Formulation 398]
state at 25° C. [1]: Solid

N[C@@H](CC(=O)O)C(=O)O.O=C(O)[C@H](O)[C@@H](O)[C@H](O)[C@H](O)CO [Formulation 399]
state at 25° C. [1]: Solid

CC(O)C(=O)O.N[C@@H](CC(=O)O)C(=O)O [Formulation 400]
state at 25° C. [1]: Solid

N[C@@H](CC(=O)O)C(=O)O.O=C(O)CCCCC(=O)O [Formulation 401]
state at 25° C. [1]: Solid

N[C@@H](CC(=O)O)C(=O)O.O=C(O)CCC(=O)O [Formulation 402]
state at 25° C. [1]: Solid

N[C@@H](CC(=O)O)C(=O)O.N[C@@H](CCC(=O)O)C(=O)O [Formulation 403]
state at 25° C. [1]: Solid

N[C@@H](CC(=O)O)C(=O)O.O=C(O)/C=C/C(=O)O [Formulation 404]
state at 25° C. [1]: Solid

NC(CC(=O)O)C(=O)O.O=C(O)CC(O)C(=O)O (stereo not drawn) [Formulation 405]
state at 25° C. [1]: Solid

N[C@@H](CC(=O)O)C(=O)O.O=C(O)CC(O)(CC(=O)O)C(=O)O [Formulation 406]
state at 25° C. [1]: Solid

N[C@@H](CC(=O)O)C(=O)O.O=C(O)C(O)C(O)C(=O)O (stereo not drawn) [Formulation 407]
state at 25° C. [1]: Solid

N[C@@H](CC(=O)O)C(=O)O.O=C(O)c1ccccc1 [Formulation 408]
state at 25° C. [1]: Solid

N[C@@H](CC(=O)O)C(=O)O.O=C1O[C@H]([C@@H](O)CO)C(O)=C1O [Formulation 409]
state at 25° C. [1]: Solid

N[C@@H](CC(=O)O)C(=O)O.O=C1O[C@H]([C@H](O)CO)C(O)=C1O [Formulation 410]
state at 25° C. [1]: Solid

N[C@@H](CCC(=O)O)C(=O)O.O=CO [Formulation 411]
state at 25° C. [1]: Solid

CC(=O)O.N[C@@H](CCC(=O)O)C(=O)O [Formulation 412]
state at 25° C. [1]: Solid

CCC(=O)O.N[C@@H](CCC(=O)O)C(=O)O [Formulation 413]
state at 25° C. [1]: Solid

CCCCCC(=O)O.N[C@@H](CCC(=O)O)C(=O)O [Formulation 414]
state at 25° C. [1]: Solid

CCCC(=O)O.N[C@@H](CCC(=O)O)C(=O)O [Formulation 415]
state at 25° C. [1]: Solid

N[C@@H](CCC(=O)O)C(=O)O.O=C(O)C(O)C(O)C(O)C(O)CO (stereo not drawn) [Formulation 416]
state at 25° C. [1]: Solid

CC(O)C(=O)O.N[C@@H](CCC(=O)O)C(=O)O [Formulation 417]
state at 25° C. [1]: Solid

N[C@@H](CCC(=O)O)C(=O)O.O=C(O)CCCCC(=O)O [Formulation 418]
state at 25° C. [1]: Solid

N[C@@H](CCC(=O)O)C(=O)O.O=C(O)CCC(=O)O [Formulation 419]
state at 25° C. [1]: Solid

N[C@@H](CCC(=O)O)C(=O)O.N[C@@H](CCC(=O)O)C(=O)O [Formulation 420]
state at 25° C. [1]: Solid

N[C@@H](CCC(=O)O)C(=O)O.O=C(O)/C=C/C(=O)O [Formulation 421]
state at 25° C. [1]: Solid

NC(CCC(=O)O)C(=O)O.O=C(O)CC(O)C(=O)O (stereo not drawn) [Formulation 422]
state at 25° C. [1]: Solid

N[C@@H](CCC(=O)O)C(=O)O.O=C(O)CC(O)(CC(=O)O)C(=O)O [Formulation 423]
state at 25° C. [1]: Solid

N[C@@H](CCC(=O)O)C(=O)O.O=C(O)C(O)C(O)C(=O)O [Formulation 424]
state at 25° C. [1]: Solid

N[C@@H](CCC(=O)O)C(=O)O.O=C(O)c1ccccc1 [Formulation 425]
state at 25° C. [1]: Solid

N[C@@H](CCC(=O)O)C(=O)O.O=C1O[C@H]([C@@H](O)CO)C(O)=C1O [Formulation 426]
state at 25° C. [1]: Solid

NC(CCC(=O)O)C(=O)O.O=C1OC(C(O)CO)C(O)=C1O (stereo not drawn) [Formulation 427]
state at 25° C. [1]: Solid

Cl.O=C(O)[C@@H]1CCCN1 [Formulation 437]
state at 25° C. (25° C.): Solid

O [Formulation 438]
state at 25° C. (25° C.): Liquid
